Among the data in ChEMBL document CHEMBL3769326, “Discovery of fluoroquinolone derivatives as potent, selective inhibitors of PI3K” (Medchemcomm, 2015) are IC50 and CC50 values, retold here.

pIC50: −log10 of the molar value. A value given as a limit tells only on which side of the number the result lay.

In one data set the test system is A549. The data set is described as follows: Antiproliferative activity against human A549 cells after 72 hrs by MTT assay. The settings on record: A549, 72 h. The class given is functional, cell-based.
For the next data set, the system named is MCF7. The data set can be described thus: cells. The following applies: Homo sapiens, MCF7, 72 h.
A further data set deals with HeLa. The data set can be described thus: Antiproliferative activity against human HeLa cells after 72 hrs by MTT assay. Format: functional, cell-based.
Another data set deals with HepG2. The data set can be described thus: cells. The following applies: Homo sapiens, HepG2, 72 h.
Data set [1] concerns the target Phosphatidylinositol 4,5-bisphosphate 3-kinase catalytic subunit gamma isoform (Homo sapiens, UniProt P48736). The data set is described as follows: Inhibition of human PI3K 110gamma by fluorescence-based immunoassay.
Data set [2] concerns the target PI3-kinase p110-alpha/p85-alpha (Homo sapiens, UniProt P42336). The data set can be described thus: Inhibition of human PI3K p110alpha/p85alpha by fluorescence-based immunoassay. The class given is protein-complex assay.
The target in data set [3] is Phosphatidylinositol 3-kinase regulatory subunit beta/Phosphatidylinositol 4,5-bisphosphate 3-kinase catalytic subunit beta isoform (Homo sapiens, UniProt P42338). The data set can be described thus: Inhibition of human PI3K p110beta/p85beta by fluorescence-based immunoassay. Format: protein-complex assay.
Data set [4] concerns the target T1, Phosphatidylinositol 4,5-bisphosphate 3-kinase catalytic subunit delta isoform (Homo sapiens, UniProt O00329).
T1 sequence (O00329 whole entry): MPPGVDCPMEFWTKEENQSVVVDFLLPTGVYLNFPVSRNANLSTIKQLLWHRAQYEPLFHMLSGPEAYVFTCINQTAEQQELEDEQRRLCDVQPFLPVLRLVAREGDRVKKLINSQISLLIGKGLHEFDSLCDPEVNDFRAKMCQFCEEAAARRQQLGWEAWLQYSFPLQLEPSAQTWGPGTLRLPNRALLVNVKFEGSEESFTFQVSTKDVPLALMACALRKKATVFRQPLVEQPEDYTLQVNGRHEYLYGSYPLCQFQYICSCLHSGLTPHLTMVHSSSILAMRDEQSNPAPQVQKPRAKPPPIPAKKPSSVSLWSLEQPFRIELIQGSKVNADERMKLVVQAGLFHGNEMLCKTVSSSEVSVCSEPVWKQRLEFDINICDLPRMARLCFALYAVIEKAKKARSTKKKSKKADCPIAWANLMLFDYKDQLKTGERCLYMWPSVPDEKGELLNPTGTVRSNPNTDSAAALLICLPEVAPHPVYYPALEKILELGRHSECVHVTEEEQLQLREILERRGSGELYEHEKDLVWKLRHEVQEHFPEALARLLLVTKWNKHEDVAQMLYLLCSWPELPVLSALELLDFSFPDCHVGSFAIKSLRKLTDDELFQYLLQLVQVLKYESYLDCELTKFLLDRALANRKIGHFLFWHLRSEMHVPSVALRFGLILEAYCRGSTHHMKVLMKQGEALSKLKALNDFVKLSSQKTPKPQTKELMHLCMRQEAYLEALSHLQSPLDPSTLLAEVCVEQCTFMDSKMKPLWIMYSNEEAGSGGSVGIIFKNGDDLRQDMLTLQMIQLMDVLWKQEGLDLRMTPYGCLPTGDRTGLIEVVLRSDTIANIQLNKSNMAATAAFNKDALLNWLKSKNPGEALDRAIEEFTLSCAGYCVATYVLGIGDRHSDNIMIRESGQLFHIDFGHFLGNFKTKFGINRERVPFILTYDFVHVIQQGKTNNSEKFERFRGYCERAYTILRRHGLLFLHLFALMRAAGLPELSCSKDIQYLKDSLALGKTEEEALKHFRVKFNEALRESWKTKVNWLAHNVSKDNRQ
The data set can be described thus: Inhibition of human PI3Kdelta by fluorescence-based immunoassay.

Data set [5] is described as follows: Cytotoxicity against macrophages after 72 hrs by MTT assay. The class given is cell-based, Macrophage.

Sequence of Phosphatidylinositol 3-kinase regulatory subunit beta/Phosphatidylinositol 4,5-bisphosphate 3-kinase catalytic subunit beta isoform (P42338 whole entry, canonical isoform): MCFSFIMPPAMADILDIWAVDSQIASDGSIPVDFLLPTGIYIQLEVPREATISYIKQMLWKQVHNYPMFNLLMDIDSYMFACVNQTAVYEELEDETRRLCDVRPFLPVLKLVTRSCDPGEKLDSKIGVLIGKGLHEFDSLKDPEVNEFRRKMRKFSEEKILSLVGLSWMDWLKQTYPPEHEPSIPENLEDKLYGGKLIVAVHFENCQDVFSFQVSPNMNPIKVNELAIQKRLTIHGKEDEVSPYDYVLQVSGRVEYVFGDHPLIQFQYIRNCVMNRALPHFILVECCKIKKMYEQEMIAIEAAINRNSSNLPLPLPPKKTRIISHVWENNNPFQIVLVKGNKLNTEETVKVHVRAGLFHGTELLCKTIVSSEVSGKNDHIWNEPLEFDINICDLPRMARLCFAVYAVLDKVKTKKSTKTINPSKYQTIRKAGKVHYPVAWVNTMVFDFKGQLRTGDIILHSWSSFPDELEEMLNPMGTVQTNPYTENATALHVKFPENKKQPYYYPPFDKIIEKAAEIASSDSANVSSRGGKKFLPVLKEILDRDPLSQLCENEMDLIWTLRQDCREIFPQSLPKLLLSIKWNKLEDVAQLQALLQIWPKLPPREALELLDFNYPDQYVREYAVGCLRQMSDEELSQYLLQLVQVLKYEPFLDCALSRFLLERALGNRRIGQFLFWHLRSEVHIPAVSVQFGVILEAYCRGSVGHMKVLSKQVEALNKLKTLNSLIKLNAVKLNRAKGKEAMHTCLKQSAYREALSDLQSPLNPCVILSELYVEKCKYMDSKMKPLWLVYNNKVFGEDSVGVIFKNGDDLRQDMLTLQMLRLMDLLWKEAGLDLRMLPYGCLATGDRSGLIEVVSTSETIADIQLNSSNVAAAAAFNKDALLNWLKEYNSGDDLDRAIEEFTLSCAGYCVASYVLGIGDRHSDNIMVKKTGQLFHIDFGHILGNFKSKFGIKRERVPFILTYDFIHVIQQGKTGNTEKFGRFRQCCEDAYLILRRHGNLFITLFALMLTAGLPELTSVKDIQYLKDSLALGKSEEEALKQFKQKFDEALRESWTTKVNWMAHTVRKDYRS
Sequence of Phosphatidylinositol 3-kinase regulatory subunit beta/Phosphatidylinositol 4,5-bisphosphate 3-kinase catalytic subunit beta isoform (O00459 whole entry, further chain, canonical isoform): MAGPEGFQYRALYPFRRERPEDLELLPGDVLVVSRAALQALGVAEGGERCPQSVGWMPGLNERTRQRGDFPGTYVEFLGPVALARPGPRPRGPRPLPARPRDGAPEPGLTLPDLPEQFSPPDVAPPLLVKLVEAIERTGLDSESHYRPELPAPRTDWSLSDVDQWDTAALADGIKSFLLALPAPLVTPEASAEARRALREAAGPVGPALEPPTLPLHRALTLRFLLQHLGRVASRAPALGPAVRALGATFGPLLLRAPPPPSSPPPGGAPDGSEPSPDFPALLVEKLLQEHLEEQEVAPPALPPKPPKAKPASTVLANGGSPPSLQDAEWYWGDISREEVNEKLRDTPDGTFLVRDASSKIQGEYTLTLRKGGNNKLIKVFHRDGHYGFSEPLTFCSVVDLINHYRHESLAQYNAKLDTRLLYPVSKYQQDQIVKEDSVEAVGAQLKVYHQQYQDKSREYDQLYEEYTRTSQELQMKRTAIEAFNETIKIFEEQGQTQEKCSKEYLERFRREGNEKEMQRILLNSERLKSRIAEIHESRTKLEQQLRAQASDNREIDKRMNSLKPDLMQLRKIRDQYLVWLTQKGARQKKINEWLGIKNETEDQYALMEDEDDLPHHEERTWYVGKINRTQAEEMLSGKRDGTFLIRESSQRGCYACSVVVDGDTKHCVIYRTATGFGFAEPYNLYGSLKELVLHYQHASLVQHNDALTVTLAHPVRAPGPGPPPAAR
Sequence of Phosphatidylinositol 4,5-bisphosphate 3-kinase catalytic subunit gamma isoform (P48736 whole entry, canonical isoform): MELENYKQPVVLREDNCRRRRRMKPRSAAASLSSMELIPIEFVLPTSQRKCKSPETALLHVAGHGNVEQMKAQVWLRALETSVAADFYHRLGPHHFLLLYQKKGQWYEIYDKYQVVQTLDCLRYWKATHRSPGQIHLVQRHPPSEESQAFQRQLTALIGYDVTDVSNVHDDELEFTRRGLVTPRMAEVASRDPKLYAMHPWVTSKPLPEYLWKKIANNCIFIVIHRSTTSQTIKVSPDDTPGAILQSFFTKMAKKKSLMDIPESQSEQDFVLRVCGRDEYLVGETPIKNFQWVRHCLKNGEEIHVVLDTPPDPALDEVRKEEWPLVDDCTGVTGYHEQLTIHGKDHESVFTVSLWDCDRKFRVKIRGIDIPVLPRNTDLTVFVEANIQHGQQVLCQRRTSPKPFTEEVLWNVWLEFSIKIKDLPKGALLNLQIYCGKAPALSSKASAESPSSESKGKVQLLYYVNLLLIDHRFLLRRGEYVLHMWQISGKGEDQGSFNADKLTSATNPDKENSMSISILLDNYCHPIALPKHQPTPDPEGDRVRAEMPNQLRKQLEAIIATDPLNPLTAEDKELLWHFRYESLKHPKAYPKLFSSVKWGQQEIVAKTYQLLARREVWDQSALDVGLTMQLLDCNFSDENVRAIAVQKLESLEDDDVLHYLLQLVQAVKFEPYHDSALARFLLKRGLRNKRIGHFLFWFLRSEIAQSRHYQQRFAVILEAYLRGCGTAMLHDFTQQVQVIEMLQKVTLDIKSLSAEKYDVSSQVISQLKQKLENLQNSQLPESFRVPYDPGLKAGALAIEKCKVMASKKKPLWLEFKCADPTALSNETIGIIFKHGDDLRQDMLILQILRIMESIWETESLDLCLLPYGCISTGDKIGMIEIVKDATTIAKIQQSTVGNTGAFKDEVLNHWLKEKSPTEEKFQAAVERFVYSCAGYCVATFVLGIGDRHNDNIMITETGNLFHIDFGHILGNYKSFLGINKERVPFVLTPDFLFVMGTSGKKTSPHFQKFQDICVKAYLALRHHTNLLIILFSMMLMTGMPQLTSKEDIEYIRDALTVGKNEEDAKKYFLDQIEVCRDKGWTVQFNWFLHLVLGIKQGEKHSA
Sequence of PI3-kinase p110-alpha/p85-alpha (P27986 whole entry, canonical isoform): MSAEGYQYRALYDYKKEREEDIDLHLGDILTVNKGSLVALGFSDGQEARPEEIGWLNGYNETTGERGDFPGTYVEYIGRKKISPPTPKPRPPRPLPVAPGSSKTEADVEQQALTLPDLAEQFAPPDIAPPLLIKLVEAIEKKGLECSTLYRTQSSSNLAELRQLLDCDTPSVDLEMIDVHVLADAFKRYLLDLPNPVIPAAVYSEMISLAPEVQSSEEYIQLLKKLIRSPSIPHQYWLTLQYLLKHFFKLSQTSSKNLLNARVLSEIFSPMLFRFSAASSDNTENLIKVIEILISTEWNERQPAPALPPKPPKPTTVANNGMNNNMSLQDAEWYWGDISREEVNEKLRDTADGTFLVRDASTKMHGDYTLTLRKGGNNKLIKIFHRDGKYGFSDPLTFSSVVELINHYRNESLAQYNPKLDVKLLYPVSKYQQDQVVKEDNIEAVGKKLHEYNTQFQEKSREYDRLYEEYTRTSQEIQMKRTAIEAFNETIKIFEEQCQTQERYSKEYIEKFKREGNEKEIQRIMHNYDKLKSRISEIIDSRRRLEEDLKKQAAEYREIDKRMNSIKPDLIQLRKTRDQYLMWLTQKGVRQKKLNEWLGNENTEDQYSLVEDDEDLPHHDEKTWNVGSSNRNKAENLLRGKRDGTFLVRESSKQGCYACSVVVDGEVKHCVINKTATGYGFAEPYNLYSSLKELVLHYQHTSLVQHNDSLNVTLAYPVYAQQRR
Sequence of PI3-kinase p110-alpha/p85-alpha (P42336 whole entry, canonical isoform): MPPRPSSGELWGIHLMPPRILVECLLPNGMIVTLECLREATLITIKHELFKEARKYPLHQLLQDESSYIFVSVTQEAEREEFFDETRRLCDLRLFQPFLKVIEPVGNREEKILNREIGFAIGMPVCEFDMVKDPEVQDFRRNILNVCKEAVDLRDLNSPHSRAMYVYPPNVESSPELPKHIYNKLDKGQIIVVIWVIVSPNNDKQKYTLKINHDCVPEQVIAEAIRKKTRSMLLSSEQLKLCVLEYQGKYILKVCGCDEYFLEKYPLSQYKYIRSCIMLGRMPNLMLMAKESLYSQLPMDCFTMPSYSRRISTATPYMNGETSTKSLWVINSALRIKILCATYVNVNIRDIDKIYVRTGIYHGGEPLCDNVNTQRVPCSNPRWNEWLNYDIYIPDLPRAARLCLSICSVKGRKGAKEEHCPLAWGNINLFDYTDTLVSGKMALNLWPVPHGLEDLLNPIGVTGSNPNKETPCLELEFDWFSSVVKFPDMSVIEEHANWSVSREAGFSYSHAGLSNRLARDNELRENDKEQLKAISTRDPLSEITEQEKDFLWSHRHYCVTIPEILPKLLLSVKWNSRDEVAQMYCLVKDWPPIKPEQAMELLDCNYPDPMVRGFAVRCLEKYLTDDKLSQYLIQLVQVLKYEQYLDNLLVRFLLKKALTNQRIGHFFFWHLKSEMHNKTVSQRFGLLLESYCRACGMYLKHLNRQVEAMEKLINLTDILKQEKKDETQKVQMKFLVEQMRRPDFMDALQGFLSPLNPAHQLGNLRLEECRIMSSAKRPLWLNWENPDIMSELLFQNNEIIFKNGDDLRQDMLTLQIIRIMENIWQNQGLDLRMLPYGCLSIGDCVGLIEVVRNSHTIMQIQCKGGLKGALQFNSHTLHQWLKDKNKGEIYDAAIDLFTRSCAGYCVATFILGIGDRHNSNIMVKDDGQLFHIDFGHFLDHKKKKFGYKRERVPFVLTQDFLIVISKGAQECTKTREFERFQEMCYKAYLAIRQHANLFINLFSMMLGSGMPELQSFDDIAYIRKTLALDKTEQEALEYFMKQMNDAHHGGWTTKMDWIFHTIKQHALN

`CCn1cc(C(=O)O)c(=O)c2cc(F)c(N3CCN(C(=O)c4ccc(OC)nc4)CC3)cc21`: the pIC50 with A549 is less than 3.00; in the data set with MCF7 it was 3.45; in the data set on HeLa, 3.81; in the data set on HepG2, 3.37; in [1], 6.55; in data set [2], less than 6.00. Further, the pIC50 in data set [3] and in data set [4] was less than 6.00 in each case.

As for `O=C(O)c1cn(C2CC2)c2cc(N3CCN(C(=O)c4cc(Cl)ccc4O)CC3)c(F)cc2c1=O`, the pIC50 with A549 was 3.94; with MCF7, 4.05; in the data set with HeLa, 4.19; in the data set on HepG2, 4.30; in data set [1], 6.76; in data set [2], 6.02. For the same molecule, the pIC50 in data set [3] was less than 6.00; in [4] it was 6.26. Also, in data set [5], the midpoint of cytotoxicity, the CC50 at 72 h, lay at 269 µM.

Consider `O=C(O)c1cn(C2CC2)c2cc(N3CCN(C(=O)c4cc([N+](=O)[O-])cc([N+](=O)[O-])c4O)CC3)c(F)cc2c1=O`, for which the pIC50 with A549 was 6.17; with MCF7, 6.96; with HeLa it was 7.22; with HepG2, 6.54; in data set [1], 7.25; in data set [2] it was 6.45. Moreover, the pIC50 in data set [3] was less than 6.00; in data set [4], 6.57. Further, the CC50 at 72 h in [5] stood at 365 µM.

With `O=C(O)c1cn(C2CC2)c2cc(N3CCN(C(=O)c4cc([N+](=O)[O-])ccc4O)CC3)c(F)cc2c1=O`, the pIC50 was 4.06 in the data set with A549; 4.32 in the data set with MCF7; 4.59 in the data set on HeLa; 3.91 in the data set with HepG2; 6.73 in data set [1]; 6.23 in data set [2]. The pIC50 in data set [3] was less than 6.00; in data set [4], 6.14. The same molecule gave a CC50 at 72 h in data set [5] of 297 µM.

In the case of `COc1ccc(C(=O)N2CCN(c3cc4c(cc3F)c(=O)c(C(=O)O)cn4C3CC3)CC2)c(O)c1`, the pIC50 in the data set on A549 is 6.07; in the data set on MCF7, 6.48; in the data set on HeLa, 6.80; with HepG2, 5.59; in data set [1] it was 7.05; in data set [2], 6.19. In addition, the pIC50 in [3] is less than 6.00; in data set [4] it was 6.46. The same molecule registered a CC50 at 72 h in data set [5] of 311 µM.

As for `CCn1cc(C(=O)O)c(=O)c2cc(F)c(N3CCN(C(=O)c4cccnc4Cl)CC3)cc21`, the pIC50 with A549 was 3.55; in the data set on MCF7 it was 3.67; in the data set on HeLa, 4.05; in the data set with HepG2, less than 3.00; in data set [1], 6.59; in data set [2], less than 6.00. The pIC50 in [3] and in data set [4] was less than 6.00 throughout.

For `CCn1cc(C(=O)O)c(=O)c2cc(F)c(N3CCN(C(=O)c4cc(Cl)ccc4O)CC3)cc21`, the pIC50 in the data set with A549 is 5.81; in the data set on MCF7 it was 5.92; with HeLa it was 6.02; in the data set with HepG2, 5.53; in data set [1], 7.01; in data set [2], 6.15. The pIC50 in data set [3] was less than 6.00; in data set [4] it was 6.51. Besides, in [5], the CC50 at 72 h worked out at 273 µM.

For the molecule `O=C(O)c1cn(C2CC2)c2cc(N3CCN(C(=O)c4cccnc4Cl)CC3)c(F)cc2c1=O`, the pIC50 is less than 3.00 in the data set with A549; 3.82 in the data set on MCF7; 3.55 in the data set with HeLa; 3.75 in the data set with HepG2; 6.58 in data set [1]; less than 6.00 in data set [2]. Moreover, the pIC50 in [3] and in data set [4] was less than 6.00 in each case.

Consider `CCn1cc(C(=O)O)c(=O)c2cc(F)c(N3CCN(C(=O)c4cc(OC)ccc4O)CC3)cc21`, for which the pIC50 is 5.97 with A549; 5.42 with MCF7; 5.68 in the data set with HeLa; 6.33 with HepG2; 6.95 in data set [1]; 6.16 in [2]. The pIC50 is less than 6.00 in data set [3] and 6.31 in [4]. Also, the CC50 at 72 h in data set [5] is 279 µM.

Regarding `CCn1cc(C(=O)O)c(=O)c2cc(F)c(N3CCN(C(=O)c4c(C)cccc4O)CC3)cc21`, the pIC50 with A549 is 3.92; in the data set with MCF7, 3.97; in the data set with HeLa it was 4.27; in the data set with HepG2, 4.56; in data set [1] it was 6.76; in [2], 6.04. The pIC50 in data set [3] was less than 6.00; in [4], 6.17. In [5], the CC50 at 72 h amounted to 343 µM.

With `O=C(O)c1cn(C2CC2)c2cc(N3CCN(C(=O)c4cc(Br)ccc4O)CC3)c(F)cc2c1=O`, the pIC50 in the data set on A549 is 4.11; in the data set with MCF7, 4.66; with HeLa it was 4.71; in the data set on HepG2 it was 4.44; in data set [1], 6.77; in data set [2] it was 6.05. Moreover, the pIC50 in [3] is less than 6.00; in [4], 6.17. The molecule further yielded a CC50 at 72 h in data set [5] of 289 µM.

With `CCn1cc(C(=O)O)c(=O)c2cc(F)c(N3CCN(C(=O)c4cc(Br)ccc4O)CC3)cc21`, the pIC50 is 6.00 in the data set on A549; 5.15 in the data set on MCF7; 6.29 in the data set with HeLa; 5.49 with HepG2; 6.95 in [1]; 6.16 in data set [2]. Also, the pIC50 was less than 6.00 in data set [3] and 6.32 in data set [4]. Further, the CC50 at 72 h in data set [5] stood at 266 µM.

In the case of `COc1ccc(C(=O)N2CCN(c3cc4c(cc3F)c(=O)c(C(=O)O)cn4C3CC3)CC2)cn1`, the pIC50 is 3.17 with A549; 4.37 with MCF7; 3.46 in the data set on HeLa; 4.18 in the data set on HepG2; 6.55 in data set [1]; less than 6.00 in data set [2]. Moreover, the pIC50 in data set [3] and in data set [4] was less than 6.00 throughout.

On to `CC[C@H](Nc1ncnc2[nH]cnc12)c1nc2cccc(F)c2c(=O)n1-c1ccccc1` [IDELALISIB], for which the pIC50 was 6.48 in the data set on A549, 6.11 in the data set with MCF7 and 6.82 with HeLa.
